# Source: patent publication US10835531B1, “Methods for predicting drug responsiveness in cancer patients” (Oncology Venture ApS, priority 2019, dated 2020)
# Columns and labels:
# HOP-92 = test: NCI60 panel growth inhibition; format: cell-based; settings: Homo sapiens; HOP-92 cell line
# Description: (§1) The human tumor cell lines of the cancer screening panel may be grown in RPMI 1640 medium containing 5% fetal bovine serum and 2 mM L-glutamine. Cells may be inoculated into 96 well microtiter plates in 100 μL at plating densities ranging from 5,000 to 40,000 cells/well depending on the doubling time of individual cell lines. After cell inoculation, the microtiter plates may be incubated at 37° C., 5% CO2, 95% air and 100% relative humidity for 24 hours prior to addition of experimental compounds. After 24 hours, two plates of each cell line may be fixed in situ with TCA, to represent a measurement of the cell population for each cell line at the time of compound addition (Tz). Experimental compounds may be solubilized in dimethyl sulfoxide at 400-fold the desired final maximum test concentration and stored frozen prior to use. At the time of compound (e.g., dovitinib or a pharmaceutically acceptable salt thereof) addition, an aliquot of frozen concentrate may be thawed and diluted to twice the desired final maximum test concentration with complete medium containing 50 μg/ml Gentamicin. Additional four, 10-fold or ½ log serial dilutions are made to provide a total of five concentrations plus control. […] Following compound (e.g., dovitinib or a pharmaceutically acceptable salt thereof) addition, the plates may be incubated for an additional 48 h at 37° C., 5% CO2, 95% air, and 100% relative humidity. For adherent cells, the assay may be terminated by the addition of cold TCA. Cells may be fixed in situ by the gentle addition of 50 μl of cold 50% (w/v) TCA (final concentration, 10% TCA) and incubated for 60 minutes at 4° C. The supernatant may be discarded, and the plates may be washed five times with tap water and air-dried. Sulforhodamine B (SRB) solution (100 μl) at 0.4% (w/v) in 1% acetic acid may be added to each well, and plates are incubated for 10 minutes at room temperature. After staining, unbound dye may be removed by washing five times with 1% acetic acid and the plates may be air-dried. […] Values are calculated for each of these three parameters if the level of activity is reached; however, if the effect is not reached or is exceeded, the value for that parameter is expressed as greater or less than the maximum or minimum concentration tested.
# HS 578T = test: NCI60 panel growth inhibition; format: cell-based; settings: Homo sapiens; HS 578T cell line
# Description: as §1
# M14 = test: NCI60 panel growth inhibition; format: cell-based; settings: Homo sapiens; M14 cell line
# Description: as §1
# SF-539 = test: NCI60 panel growth inhibition; format: cell-based; settings: Homo sapiens; SF-539 cell line
# Description: as §1
# SF-295 = test: NCI60 panel growth inhibition; format: cell-based; settings: Homo sapiens; SF-295 cell line
# Description: as §1
# SK-MEL-5 = test: NCI60 panel growth inhibition; format: cell-based; settings: Homo sapiens; SK-MEL-5 cell line
# Description: as §1
# MALME-3M = test: NCI60 panel growth inhibition; format: cell-based; settings: Homo sapiens; MALME-3M cell line
# Description: as §1
# DU-145 = test: NCI60 panel growth inhibition; format: cell-based; settings: Homo sapiens; DU-145 cell line
# Description: as §1
# EKVX = test: NCI60 panel growth inhibition; format: cell-based; settings: Homo sapiens; EKVX cell line
# Description: as §1
# IGROV1 = test: NCI60 panel growth inhibition; format: cell-based; settings: Homo sapiens, IGROV-1; IGROV1 cell line
# Description: as §1
# OVCAR-8 = test: NCI60 panel growth inhibition; format: cell-based; settings: Homo sapiens; OVCAR-8 cell line
# Description: as §1
# U251 = test: NCI60 panel growth inhibition; format: cell-based; settings: Homo sapiens, U-251; U251 cell line
# Description: as §1
# KM12 = test: NCI60 panel growth inhibition; format: cell-based; settings: Homo sapiens; KM12 cell line
# Description: as §1
# UO-31 = test: NCI60 panel growth inhibition; format: cell-based; settings: Homo sapiens; UO-31 cell line
# Description: as §1
# BT-549 = test: NCI60 panel growth inhibition; format: cell-based; settings: Homo sapiens; BT-549 cell line
# Description: as §1
# RXF 393 = test: NCI60 panel growth inhibition; format: cell-based; settings: Homo sapiens; RXF 393 cell line
# Description: as §1
# RPMI-8226 = test: NCI60 panel growth inhibition; format: cell-based; settings: Homo sapiens; RPMI-8226 cell line
# Description: as §1
# HCT-15 = test: NCI60 panel growth inhibition; format: cell-based; settings: Homo sapiens; HCT-15 cell line
# Description: as §1
# NCl-H322M = test: NCI60 panel growth inhibition; format: cell-based; settings: Homo sapiens; NCl-H322M cell line
# Description: as §1
# NCl/ADR-RES = test: NCI60 panel growth inhibition; format: cell-based; settings: Homo sapiens; NCl/ADR-RES cell line
# Description: as §1
# OVCAR-3 = test: NCI60 panel growth inhibition; format: cell-based; settings: Homo sapiens; OVCAR-3 cell line
# Description: as §1
# A498 = test: NCI60 panel growth inhibition; format: cell-based; settings: Homo sapiens; A498 cell line
# Description: as §1
# SW-620 = test: NCI60 panel growth inhibition; format: cell-based; settings: Homo sapiens; SW-620 cell line
# Description: as §1
# SR = test: NCI60 panel growth inhibition; format: cell-based; settings: Homo sapiens; SR cell line
# Description: as §1
# T-47D = test: NCI60 panel growth inhibition; format: cell-based; settings: Homo sapiens, T47D; T-47D cell line
# Description: as §1
# ACHN = test: NCI60 panel growth inhibition; format: cell-based; settings: Homo sapiens; ACHN cell line
# Description: as §1
# MCF7 = test: NCI60 panel growth inhibition; format: cell-based; settings: Homo sapiens; MCF7 cell line
# Description: as §1
# OVCAR-5 = test: NCI60 panel growth inhibition; format: cell-based; settings: Homo sapiens; OVCAR-5 cell line
# Description: as §1
# MOLT-4 = test: NCI60 panel growth inhibition; format: cell-based; settings: Homo sapiens; MOLT-4 cell line
# Description: as §1
# SNB-19 = test: NCI60 panel growth inhibition; format: cell-based; settings: Homo sapiens; SNB-19 cell line
# Description: as §1
# MDA-MB-231/ATCC = test: NCI60 panel growth inhibition; format: cell-based; settings: Homo sapiens; MDA-MB-231/ATCC cell line
# Description: as §1
# CCRF-CEM = test: NCI60 panel growth inhibition; format: cell-based; settings: Homo sapiens; CCRF-CEM cell line
# Description: as §1
# NCl-H522 = test: NCI60 panel growth inhibition; format: cell-based; settings: Homo sapiens; NCl-H522 cell line
# Description: as §1
# MDA-MB-468 = test: NCI60 panel growth inhibition; format: cell-based; settings: Homo sapiens; MDA-MB-468 cell line
# Description: as §1
# HCT-116 = test: NCI60 panel growth inhibition; format: cell-based; settings: Homo sapiens; HCT-116 cell line
# Description: as §1
# COLO 205 = test: NCI60 panel growth inhibition; format: cell-based; settings: Homo sapiens; COLO 205 cell line
# Description: as §1
# OVCAR-4 = test: NCI60 panel growth inhibition; format: cell-based; settings: Homo sapiens; OVCAR-4 cell line
# Description: as §1
# UACC-62 = test: NCI60 panel growth inhibition; format: cell-based; settings: Homo sapiens; UACC-62 cell line
# Description: as §1
# K-562 = test: NCI60 panel growth inhibition; format: cell-based; settings: Homo sapiens, K562; K-562 cell line
# Description: as §1
# NCl-H226 = test: NCI60 panel growth inhibition; format: cell-based; settings: Homo sapiens; NCl-H226 cell line
# Description: as §1
# HCC-2998 = test: NCI60 panel growth inhibition; format: cell-based; settings: Homo sapiens; HCC-2998 cell line
# Description: as §1
# HOP-62 = test: NCI60 panel growth inhibition; format: cell-based; settings: Homo sapiens; HOP-62 cell line
# Description: as §1
# NCl-H460 = test: NCI60 panel growth inhibition; format: cell-based; settings: Homo sapiens; NCl-H460 cell line
# Description: as §1
# CAKI-1 = test: NCI60 panel growth inhibition; format: cell-based; settings: Homo sapiens; CAKI-1 cell line
# Description: as §1
# SNB-75 = test: NCI60 panel growth inhibition; format: cell-based; settings: Homo sapiens; SNB-75 cell line
# Description: as §1
# TK-10 = test: NCI60 panel growth inhibition; format: cell-based; settings: Homo sapiens; TK-10 cell line
# Description: as §1
# HT29 = test: NCI60 panel growth inhibition; format: cell-based; settings: Homo sapiens, HT-29; HT29 cell line
# Description: as §1
# SF-268 = test: NCI60 panel growth inhibition; format: cell-based; settings: Homo sapiens; SF-268 cell line
# Description: as §1
# SK-MEL-2 = test: NCI60 panel growth inhibition; format: cell-based; settings: Homo sapiens; SK-MEL-2 cell line
# Description: as §1
# PC-3 = test: NCI60 panel growth inhibition; format: cell-based; settings: Homo sapiens; PC-3 cell line
# Description: as §1
# SN12C = test: NCI60 panel growth inhibition; format: cell-based; settings: Homo sapiens; SN12C cell line
# Description: as §1
# A549/ATCC = test: NCI60 panel growth inhibition; format: cell-based; settings: Homo sapiens; A549/ATCC cell line
# Description: as §1
# NCl-H23 = test: NCI60 panel growth inhibition; format: cell-based; settings: Homo sapiens; NCl-H23 cell line
# Description: as §1
# MDA-MB-435 = test: NCI60 panel growth inhibition; format: cell-based; settings: Homo sapiens; MDA-MB-435 cell line
# Description: as §1
# LOX IMVI = test: NCI60 panel growth inhibition; format: cell-based; settings: Homo sapiens; LOX IMVI cell line
# Description: as §1
# 786-0 = test: NCI60 panel growth inhibition; format: cell-based; settings: Homo sapiens; 786-0 cell line
# Description: as §1
# SK-OV-3 = test: NCI60 panel growth inhibition; format: cell-based; settings: Homo sapiens; SK-OV-3 cell line
# Description: as §1
# SK-MEL-28 = test: NCI60 panel growth inhibition; format: cell-based; settings: Homo sapiens; SK-MEL-28 cell line
# Description: as §1
# UACC-257 = test: NCI60 panel growth inhibition; format: cell-based; settings: Homo sapiens; UACC-257 cell line
# Description: as §1
# HL-60(TB) = test: NCI60 panel growth inhibition; format: cell-based; settings: Homo sapiens; HL-60(TB) cell line
# Description: The human tumor cell lines of the cancer screening panel may be grown in RPMI 1640 medium containing 5% fetal bovine serum and 2 mM L-glutamine. Cells may be inoculated into 96 well microtiter plates in 100 μL at plating densities ranging from 5,000 to 40,000 cells/well depending on the doubling time of individual cell lines. After cell inoculation, the microtiter plates may be incubated at 37° C., 5% CO2, 95% air and 100% relative humidity for 24 hours prior to addition of experimental compounds. After 24 hours, two plates of each cell line may be fixed in situ with TCA, to represent a measurement of the cell population for each cell line at the time of compound addition (Tz). Experimental compounds may be solubilized in dimethyl sulfoxide at 400-fold the desired final maximum test concentration and stored frozen prior to use. […] Bound stain may be subsequently solubilized with 10 mM trizma base, and the absorbance may be read on an automated plate reader at a wavelength of 515 nm. […] Using the seven absorbance measurements [time zero, (Tz), control growth, (C), and test growth in the presence of compound (e.g., dovitinib or a pharmaceutically acceptable salt thereof) at the five concentration levels (Ti)], the percentage growth may be calculated at each of the compound concentrations levels. […] The compound concentration resulting in total growth inhibition (TGI) is calculated from Ti=Tz. […]
# [1] = test system: patients with RCC, GIST, endometrial cancer, HCC or breast cancer; test: Clinical response rate as a function of DRP cutoff, all five cohorts of Examples 2-6; format: in vivo, human
# Description: Gene expression data (Affymetrix) and clinical response data was obtained from 73 patients in the dovitinib arm. The DRP was applied to calculate a score for each patient (mean of genes in Table 2 minus mean of genes in Table 3). The score for each patient was compared to a reference population with the same diagnosis. For the reference population the dovitinib and sorafenib arms were combined (N=148). This allowed the calculation of a percentile score for each patient. Patients were grouped according to RECIST v1.1 response (centrally assessed) and included in FIG. 1.
# Gene expression data (Affymetrix) and clinical response data was obtained from 14 patients. The DRP was applied to calculate a score for each patient (mean of genes in Table 2 minus mean of genes in Table 3). The score for each patient was compared to a reference population with the same diagnosis. For the reference population public data sets were downloaded from the GEO database (GSE20708, GSE17743, GSE8167, N=83). This allowed the calculation of a percentile score for each patient. Patients were grouped according to RECIST v1.1 response (locally assessed, no central assessment) and included in FIG. 1.
# Gene expression data (Affymetrix) and clinical response data was obtained from 29 patients. The DRP was applied to calculate a score for each patient (mean of genes in Table 2 minus mean of genes in Table 3). The score for each patient was compared to a reference population with the same diagnosis. For the reference population a public data set was downloaded from the GEO database (GSE17025, N=91). This allowed the calculation of a percentile score for each patient. Patients were grouped according to RECIST v1.1 response (central assessment) and included in FIG. 1.
# Gene expression data (Affymetrix) and clinical response data was obtained from 6 patients in the dovitinib arm. The DRP was applied to calculate a score for each patient (mean of genes in Table 2 minus mean of genes in Table 3). The score for each patient was compared to a reference population with the same diagnosis. […]
smiles,measurement,setting,value
"CN1CCN(c2ccc3nc(-c4c(N)c5c(F)cccc5[nH]c4=O)[nH]c3c2)CC1 [dovitinib, 4-amino-5-fluoro-3-[6-(4-methylpiperazin-1-yl)-1H-benzimidazol-2-yl]-1H-quinolin-2-one]",GI50,HOP-92,355 nM
same,GI50,HS 578T,977 nM
same,GI50,M14,389 nM
same,GI50,SF-539,427 nM
same,GI50,SF-295,6030 nM
same,GI50,SK-MEL-5,1780 nM
same,GI50,MALME-3M,490 nM
same,GI50,DU-145,1150 nM
same,GI50,EKVX,7590 nM
same,GI50,IGROV1,251 nM
same,GI50,OVCAR-8,1450 nM
same,GI50,U251,550 nM
same,GI50,KM12,41.7 nM
same,GI50,UO-31,219 nM
same,GI50,BT-549,1050 nM
same,GI50,RXF 393,219 nM
same,GI50,RPMI-8226,1480 nM
same,GI50,HCT-15,427 nM
same,GI50,NCl-H322M,759 nM
same,GI50,NCl/ADR-RES,2690 nM
same,GI50,OVCAR-3,6760 nM
same,GI50,A498,135 nM
same,GI50,SW-620,550 nM
same,GI50,SR,447 nM
same,GI50,T-47D,10000 nM
same,GI50,ACHN,331 nM
same,GI50,MCF7,1170 nM
same,GI50,OVCAR-5,1780 nM
same,GI50,MOLT-4,331 nM
same,GI50,SNB-19,2630 nM
same,GI50,MDA-MB-231/ATCC,2340 nM
same,GI50,CCRF-CEM,589 nM
same,GI50,NCl-H522,3160 nM
same,GI50,MDA-MB-468,2570 nM
same,GI50,HCT-116,417 nM
same,GI50,COLO 205,2240 nM
same,GI50,OVCAR-4,575 nM
same,GI50,UACC-62,3630 nM
same,GI50,K-562,550 nM
same,GI50,NCl-H226,355 nM
same,GI50,HCC-2998,1320 nM
same,GI50,HOP-62,1450 nM
same,GI50,NCl-H460,468 nM
same,GI50,CAKI-1,468 nM
same,GI50,SNB-75,977 nM
same,GI50,TK-10,7760 nM
same,GI50,HT29,1410 nM
same,GI50,SF-268,2190 nM
same,GI50,SK-MEL-2,891 nM
same,GI50,PC-3,1120 nM
same,GI50,SN12C,676 nM
same,GI50,A549/ATCC,562 nM
same,GI50,NCl-H23,2450 nM
same,GI50,MDA-MB-435,1070 nM
same,GI50,LOX IMVI,871 nM
same,GI50,786-0,724 nM
same,GI50,SK-OV-3,513 nM
same,GI50,SK-MEL-28,1480 nM
same,GI50,UACC-257,3390 nM
same,GI50,HL-60(TB),1070 nM
same,overall response rate (ORR=CR+PR),"[1]; all five cohorts from Examples 2-6, patients at DRP cutoff of 50",26%
same,overall response rate (ORR=CR+PR),"[1]; all five cohorts from Examples 2-6, patients at DRP cutoff of 80",35%
same,average overall response rate (ORR=CR+PR),"[1]; all five cohorts from Examples 2-6, without the DRP (breast cohort received dovitinib plus fulvestrant)",16%
